In ChEMBL document CHEMBL1201862, “PubChem BioAssay data set” (2004):
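These data come from cells grown in 96-well plates and exposed to compound for 48 hours at five concentrations. GI50: concentration for 50% inhibition of growth.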 Activity calls are given as the source filed them. No stated cut-off is given here; in the data, active = GI50 up to about 1.1 µM and inactive = higher.

Tests used:
Assay in all cases: NCI tumour cell line growth inhibition, 48 h
NCI/ADR-RES = system: NCI/ADR-RES
Malme-3M = system: Malme-3M
RPMI-8226 = system: RPMI-8226
MOLT-4 = system: MOLT-4
SW-620 = system: SW-620
HCT-15 = system: HCT-15
A549 = system: A549
SF-539 = system: SF-539
U-251 = system: U-251
SF-295 = system: SF-295
CCRF-CEM = system: CCRF-CEM
SK-MEL-28 = system: SK-MEL-28
MCF7 = system: MCF7
RXF 393 = system: RXF 393
MDA-N = system: MDA-N
ACHN = system: ACHN
TK-10 = system: TK-10
M14 = system: M14
MDA-MB-231 = system: MDA-MB-231
T47D = system: T47D

| SMILES | GI50 (NCI/ADR-RES) | GI50 (Malme-3M) | GI50 (RPMI-8226) | GI50 (MOLT-4) | GI50 (SW-620) | GI50 (HCT-15) [µM] | GI50 (A549) | GI50 (SF-539) | GI50 (U-251) | GI50 (SF-295) | GI50 (CCRF-CEM) | GI50 (SK-MEL-28) | GI50 (MCF7) | GI50 (RXF 393) | GI50 (MDA-N) | GI50 (ACHN) | GI50 (TK-10) | GI50 (M14) | GI50 (MDA-MB-231) | GI50 (T47D) |
| --- | --- | --- | --- | --- | --- | --- | --- | --- | --- | --- | --- | --- | --- | --- | --- | --- | --- | --- | --- | --- |
| O=C(/C=C\c1ccc(/C=C/C(=O)Nc2cccc(C3=NCCCN3)c2)cc1)Nc1cccc(C2=NCCCN2)c1 | > 100 µM (inactive) | > 100 µM (inactive) | 33.9 µM (inactive) | > 100 µM (inactive) | 25.4 µM (inactive) | > 100 | > 100 µM (inactive) | > 100 µM (inactive) | > 100 µM (inactive) | > 100 µM (inactive) | > 100 µM (inactive) | > 100 µM (inactive) | 16.3 µM (inactive) | > 100 µM (inactive) |  |  |  |  |  |  |
| COC(=O)[C@H](COC(C)(C)C)NC(=O)N[C@H](C)c1ccccc1 | > 100 µM (inactive) |  | > 100 µM (inactive) | > 100 µM (inactive) | > 100 µM (inactive) | > 100 | > 100 µM (inactive) | > 100 µM (inactive) | > 100 µM (inactive) | > 100 µM (inactive) | > 100 µM (inactive) | > 100 µM (inactive) | > 100 µM (inactive) |  | > 100 µM (inactive) | > 100 µM (inactive) | > 100 µM (inactive) | > 100 µM (inactive) | > 100 µM (inactive) |  |
| CCCCCCC(C)CC(CCCCCC)NCCOC(=O)c1ccc([N+](=O)[O-])cc1 (stereo not drawn) | 21.3 µM (inactive) | 13.7 µM (inactive) |  |  | 13.6 µM (inactive) | 14.3 | 15.6 µM (inactive) | 15.8 µM (inactive) | 13.4 µM (inactive) | 11.7 µM (inactive) | 2.69 µM (inactive) | 12.6 µM (inactive) | 14.1 µM (inactive) |  |  | 15.1 µM (inactive) | 12 µM (inactive) |  | 10.4 µM (inactive) | 15.6 µM (inactive) |
| Cc1c2c(n3c(nc4ccccc43)c1C#N)N(c1ccc(F)cc1)CC2 | > 100 µM (inactive) | > 100 µM (inactive) |  |  | > 100 µM (inactive) | > 100 | > 100 µM (inactive) | > 100 µM (inactive) | > 100 µM (inactive) | > 100 µM (inactive) | > 100 µM (inactive) | > 100 µM (inactive) | > 100 µM (inactive) | > 100 µM (inactive) |  | > 100 µM (inactive) | > 100 µM (inactive) |  |  |  |
| CC(SC(=S)N1CCCC1)C(=O)Nc1nnc(-c2ccc(Cl)cc2)o1 (stereo not drawn) | 22.8 µM (inactive) | 23.8 µM (inactive) | 14.6 µM (inactive) |  | 36.6 µM (inactive) | 17 | 31 µM (inactive) | 85.3 µM (inactive) | 29.9 µM (inactive) |  | < 0.01 µM (active) | 46.7 µM (inactive) | 33.7 µM (inactive) | 55.2 µM (inactive) |  | 33 µM (inactive) | 50.4 µM (inactive) | 15.5 µM (inactive) | 40 µM (inactive) | 48.8 µM (inactive) |
| O=[N+]([O-])c1ccccc1S(=O)(=O)c1ccccc1 |  | > 100 µM (inactive) | > 100 µM (inactive) | > 100 µM (inactive) | > 100 µM (inactive) | > 100 | > 100 µM (inactive) | > 100 µM (inactive) | > 100 µM (inactive) | > 100 µM (inactive) | > 100 µM (inactive) | > 100 µM (inactive) |  | 77.8 µM (inactive) |  | > 100 µM (inactive) | > 100 µM (inactive) | > 100 µM (inactive) |  |  |
| COc1ccccc1-c1cc(O)c2ccc(C)nc2n1 | > 100 µM (inactive) | 51.5 µM (inactive) | > 100 µM (inactive) | > 100 µM (inactive) | 50.9 µM (inactive) | 43.4 | > 100 µM (inactive) | > 100 µM (inactive) |  |  | > 100 µM (inactive) | > 100 µM (inactive) | 47.4 µM (inactive) | > 100 µM (inactive) |  | > 100 µM (inactive) | > 100 µM (inactive) | 98.2 µM (inactive) | > 100 µM (inactive) | > 100 µM (inactive) |
| COc1ccc(/C=C2\N=C(c3ccccc3)OC2=O)cc1OC(C)=O | > 100 µM (inactive) | 13.5 µM (inactive) | 32 µM (inactive) | 0.615 µM (active) | 51.4 µM (inactive) | 49.4 | > 100 µM (inactive) | > 100 µM (inactive) | 39.8 µM (inactive) |  | 27.7 µM (inactive) | > 100 µM (inactive) | 53.2 µM (inactive) | > 100 µM (inactive) |  | 33.6 µM (inactive) | > 100 µM (inactive) | 99.8 µM (inactive) | 46.5 µM (inactive) | > 100 µM (inactive) |
| FC(F)(F)c1ccccc1N1CCN(c2nc(-c3cccs3)nc3ccc(Br)cc23)CC1 | 41.8 µM (inactive) | 24 µM (inactive) | 11.2 µM (inactive) | 44.5 µM (inactive) | 38.6 µM (inactive) | 7.46 | 33.8 µM (inactive) | 97.3 µM (inactive) | 44.4 µM (inactive) | 30.3 µM (inactive) | 0.581 µM (active) | 35.8 µM (inactive) | 1.06 µM (active) |  |  | 36.6 µM (inactive) | 15.8 µM (inactive) | 38.7 µM (inactive) | 21 µM (inactive) | 2.37 µM (inactive) |
| CN(C)c1ccc(/C=N/c2nc3cc4sc(/N=C/c5ccc(N(C)C)cc5)nc4cc3s2)cc1 | > 100 µM (inactive) | > 100 µM (inactive) | 19.1 µM (inactive) | 12.9 µM (inactive) | 33.9 µM (inactive) | > 100 | 12.8 µM (inactive) | > 100 µM (inactive) | 50.5 µM (inactive) | > 100 µM (inactive) | 6.3 µM (inactive) | > 100 µM (inactive) | 12.6 µM (inactive) |  |  | 66.1 µM (inactive) | 80.7 µM (inactive) | > 100 µM (inactive) | > 100 µM (inactive) | 42.5 µM (inactive) |
| Cc1ccc(S(=O)(=O)OC2CSSCC2OS(=O)(=O)c2ccc(C)cc2)cc1 (stereo not drawn) |  | 19.2 µM (inactive) | 13.2 µM (inactive) | 2.59 µM (inactive) | 14.4 µM (inactive) | 10.2 | 18 µM (inactive) | 10.5 µM (inactive) | 14 µM (inactive) | 16.2 µM (inactive) | 4.35 µM (inactive) | 16.6 µM (inactive) |  | 20.9 µM (inactive) |  | 15.3 µM (inactive) | 15.3 µM (inactive) | 12.6 µM (inactive) |  |  |
| Cc1ccc(NC(=O)CC2Sc3ccccc3NC2=O)cc1C (stereo not drawn) |  | > 100 µM (inactive) | > 100 µM (inactive) | 8.22 µM (inactive) | > 100 µM (inactive) | 85.7 | 41.2 µM (inactive) | 85.3 µM (inactive) | 79.6 µM (inactive) | > 100 µM (inactive) | 18.7 µM (inactive) | > 100 µM (inactive) |  | 29.9 µM (inactive) |  | 54.8 µM (inactive) | > 100 µM (inactive) | > 100 µM (inactive) |  |  |
| CC(=O)Nc1ccc(-c2nnc(SCC(=O)Nc3cccc([N+](=O)[O-])c3)o2)cc1 |  | 11.6 µM (inactive) | 20.7 µM (inactive) | 4.39 µM (inactive) | 13.4 µM (inactive) | 15.4 | 17.5 µM (inactive) | 15.8 µM (inactive) | 14.6 µM (inactive) | 16.8 µM (inactive) | 9.1 µM (inactive) | 16.5 µM (inactive) |  | 12.2 µM (inactive) |  | 15.4 µM (inactive) | 23.6 µM (inactive) | 16.1 µM (inactive) |  |  |
| COC(=O)CCC1(NS(=O)(=O)c2ccc(C)cc2)CCC(C(C)(C)C)CC1 (stereo not drawn) |  | 19.3 µM (inactive) | 4.08 µM (inactive) | 6.15 µM (inactive) | 16.7 µM (inactive) | > 10 | 13.6 µM (inactive) | 13.3 µM (inactive) | 14.3 µM (inactive) | 11.8 µM (inactive) | 9.89 µM (inactive) | 11.6 µM (inactive) |  | > 10 µM (inactive) |  | > 10 µM (inactive) | 18 µM (inactive) | 12.7 µM (inactive) |  |  |
| OC(c1ccccc1)C1CC2C=CC1C2 (stereo not drawn) |  | > 100 µM (inactive) | > 100 µM (inactive) | > 100 µM (inactive) | > 100 µM (inactive) | > 100 | > 100 µM (inactive) | > 100 µM (inactive) | > 100 µM (inactive) | > 100 µM (inactive) | > 100 µM (inactive) | > 100 µM (inactive) |  | > 100 µM (inactive) |  | > 100 µM (inactive) | > 100 µM (inactive) | > 100 µM (inactive) |  |  |
| C/C=C/CC(C)[C@@H](O)[C@H](NC)C(=O)O (stereo partly drawn) |  | > 100 µM (inactive) | > 100 µM (inactive) | > 100 µM (inactive) | > 100 µM (inactive) | > 100 | > 100 µM (inactive) | > 100 µM (inactive) | > 100 µM (inactive) | > 100 µM (inactive) | > 100 µM (inactive) | > 100 µM (inactive) |  | > 100 µM (inactive) |  | > 100 µM (inactive) | > 100 µM (inactive) | > 100 µM (inactive) |  |  |
| CC(OC1CC(=O)CC2C(=O)C=CC(=O)C12)c1ccccc1 (stereo not drawn) |  | 20.4 µM (inactive) | 17.3 µM (inactive) | 4.97 µM (inactive) | 13.8 µM (inactive) | 17.1 | 19.1 µM (inactive) | 19.8 µM (inactive) | 14.5 µM (inactive) | 16.6 µM (inactive) | 2.67 µM (inactive) | 20.8 µM (inactive) |  | 18.9 µM (inactive) |  | 11.2 µM (inactive) | 17.8 µM (inactive) | 18.7 µM (inactive) |  |  |
| Cc1nnc2n1N=C(c1cc(F)c(Cl)cc1Cl)/C(=C/c1ccc(-c3ccc([N+](=O)[O-])cc3)o1)S2 | > 100 µM (inactive) | > 100 µM (inactive) | 34 µM (inactive) | 29.2 µM (inactive) | 39.6 µM (inactive) | 53.5 | > 100 µM (inactive) |  | 71.8 µM (inactive) | > 100 µM (inactive) | 37.2 µM (inactive) | > 100 µM (inactive) | 44 µM (inactive) |  |  | > 100 µM (inactive) |  | > 100 µM (inactive) |  | 28.6 µM (inactive) |
